Measured values taken from patent publication US20250197420A1, “MACROCYCLIC COMPOUNDS, COMPOSITIONS, AND METHODS OF USING THEREOF” (Sionna Therapeutics Inc., priority 2022, published 2025).

Tests used:
[1] = target: T1, Purified recombinant NBD1 (Homo sapiens, UniProt P13569); experiment: Aggregation analysis using differential static light scattering (DSLS): thermal stability of NBD1; format: binding; conditions: NBD1 0.2 mg/ml; Tagg of compound well minus average Tagg of DMSO control wells
T1 construct: Purified recombinant NBD1 was produced using previously described methods; made in house
T1 sequence (P13569 423-646 limits assumed): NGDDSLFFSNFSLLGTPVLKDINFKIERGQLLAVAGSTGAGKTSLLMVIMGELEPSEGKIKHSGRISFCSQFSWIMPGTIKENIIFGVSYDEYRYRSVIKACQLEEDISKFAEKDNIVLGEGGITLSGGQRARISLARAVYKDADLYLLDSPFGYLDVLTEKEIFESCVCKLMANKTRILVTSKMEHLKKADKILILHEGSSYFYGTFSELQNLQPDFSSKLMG
In short: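 Recombinant NBD1 at 0.2 mg/ml in Tris/NaCl/MgCl2 buffer with 2 mM ATP, 2 mM DTT, 1% glycerol, pH 7.6, was incubated with compound and heated at 1 °C/min to 70 °C while static light scattering was monitored. Tagg was taken from the curve inflection point and reported as ΔTagg relative to DMSO controls.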

[2] = test system: Primary human bronchial epithelial cells from a ΔF508 homozygous CF donor (CF-HBE cells); experiment: TECC24 recording of CFTR-mediated transepithelial chloride transport, AUC fold over benchmark VX-809 @10 μM; format: cell-based; conditions: 48 hours incubation, AUC of forskolin-stimulated IEQ
Description: The effects of a test agent on CFTR-mediated transepithelial chloride transport is measured using TECC24 recording analysis. Test agents are solubilized in DMSO. Solubilized test agents are mixed with incubation medium containing DMEM/F12, Ultroser G (0.5%; Crescent Chemical, catalog #67042), Hyclone Fetal Clone II (2%; GE Healthcare, catalog #SH30066.02), bovine brain extract (0.25%; Lonza, catalog #CC-4098), insulin ([…]), IL-13 (10 ng/mL), hydrocortisone (20 nM), transferrin ([…]), triiodothyronine (500 nM), ethanolamine (250 nM), epinephrine (1.5 μM), phosphoethanolamine (250 nM), and retinoic acid (10 nM). Primary human bronchial epithelial cells from a ΔF508 homozygous CF donor (CF-HBE cells; from University of North Carolina Cystic Fibrosis Tissue Procurement Center), grown on Transwell HTS 24-well cell culture inserts (Costar, catalog #3378), are exposed to test agents or controls dissolved in incubation medium. The CF-HBE cells are cultured at 36.5° C. for 48 hours before TECC24 recordings are performed in the presence or absence of test agent, a positive control or vehicle (DMSO).
Following incubation, the transwell cell culture inserts containing the test agent or control-treated CF-HBE cells are loaded onto a TECC24 apparatus (TECC v7 or MTECC v2; EP Design) to record the transepithelial voltage (VT) and resistance (TEER) using 4 AgCl electrodes per well configured in current-clamp mode. The apical and basolateral bath solutions both contain (in mM) 140 NaCl, 5 KCl, 2 CaCl2), 1 MgCl2, 10 Hepes, and 10 glucose (adjusted to pH 7.4 with NaOH). To inhibit basal Na+ absorption, the ENaC inhibitor benzamil (10 μM) is added to the bath. Then, the adenylate cyclase activator, forskolin (10 μM), is added to the bath to activate CFTR. The forskolin-stimulated Cl− transport is halted by addition of CFTR inhibitor-172 (20 μM) to the bath at the end of the experiment to confirm specificity. VT and TEER recordings are digitally acquired at routine intervals using TECC or MTECC software (EP Design). VT and TEER are transformed into equivalent transepithelial Cl− current (IEQ), and the Area Under the Curve (AUC) of the IEQ time course between forskolin and CFTR inhibitor-172 addition is generated using Excel (Microsoft). Efficacy is expressed as the ratio of the test agent AUC divided by vehicle AUC. EC50s based on AUC are generated using the non-linear regression log(agonist) vs. response function in Prism software (Graphpad) with HillSlope fixed=1.
If a test agent increases the AUC of the forskolin-stimulated IEQ relative to VX-809 in CF-HBE cells, and this increase is inhibited by CFTR inhibitor-172, then the test agent is considered a CFTR corrector. TECC assay efficacy is expressed as the ratio of the test agent AUC divided by VX-809 AUC. As set forth in Table 2 below, a TECC value less than 3 is marked “A”; a value between 3 and 6 is marked “B”; a value between 6 and 20 is marked “C”.

CON(C)C(=O)CCc1cccc(C2(C)CCCC(C)(C)CN(C)C(=O)CCc3c(c(F)cc4[nH]ccc34)Oc3ccc(F)c(c3)-c3ncc2[nH]3)c1 (single isomer, unassigned) [Compound 60B, 3-[3-(23,29-difluoro-6,10,10,12-tetramethyl-13-oxo-25-oxa-3,12,20,31-tetrazapentacyclo-[24.3.1.12,5.016,24.017,21]hentriaconta-1(30),2,4,16,18,21,23,26,28-nonaen-6-yl)phenyl]-N-methoxy-N-methyl-propanamide]
DSLS (ΔTagg) [1]: B (a value above 5 °C and less than or equal to 10 °C is marked “B”)
TECC (test agent AUC divided by VX-809 AUC) [2]: B (a value between 3 and 6 is marked “B”)

CCOC(=O)Cc1cccc(C2(C)CCCC(C)(C)CN(C)C(=O)CCc3c(c(F)cc4[nH]ccc34)Oc3ccc(F)c(c3)-c3ncc2[nH]3)c1 (single isomer, unassigned) [Compound 64A, ethyl 2-[3-(23,29-difluoro-6,10,10,12-tetramethyl-13-oxo-25-oxa-3,12,20,31-tetrazapentacyclo-[24.3.1.12,5.016,24.017,21]hentriaconta-1(30),2,4,16,18,21,23,26,28-nonaen-6-yl)phenyl]acetate]
DSLS (ΔTagg) [1]: A (an ΔTagg value less than or equal to 5 °C is marked “A”)
TECC (test agent AUC divided by VX-809 AUC) [2]: A (a TECC value less than 3 is marked “A”)

CCOC(=O)Cc1cccc(C2(C)CCCC(C)(C)CN(C)C(=O)CCc3c(c(F)cc4[nH]ccc34)Oc3ccc(F)c(c3)-c3ncc2[nH]3)c1 (single isomer, unassigned) [Compound 64B, ethyl 2-[3-(23,29-difluoro-6,10,10,12-tetramethyl-13-oxo-25-oxa-3,12,20,31-tetrazapentacyclo-[24.3.1.12,5.016,24.017,21]hentriaconta-1(30),2,4,16,18,21,23,26,28-nonaen-6-yl)phenyl]acetate]
DSLS (ΔTagg) [1]: A (an ΔTagg value less than or equal to 5 °C is marked “A”)
TECC (test agent AUC divided by VX-809 AUC) [2]: B (a value between 3 and 6 is marked “B”)

CN1CC(C)(C)CCCC(C)(c2cccc(CC(=O)O)c2)c2cnc([nH]2)-c2cc(ccc2F)Oc2c(F)cc3[nH]ccc3c2CCC1=O (single isomer, unassigned) [Compound 65A, 2-[3-(23,29-difluoro-6,10,10,12-tetramethyl-13-oxo-25-oxa-3,12,20,31-tetrazapentacyclo-[24.3.1.12,5.016,24.017,21]hentriaconta-1(30),2,4,16,18,21,23,26,28-nonaen-6-yl)phenyl]acetic acid]
DSLS (ΔTagg) [1]: A (an ΔTagg value less than or equal to 5 °C is marked “A”)
TECC (test agent AUC divided by VX-809 AUC) [2]: A (a TECC value less than 3 is marked “A”)

CN1CC(C)(C)CCCC(C)(c2cccc(CC(=O)O)c2)c2cnc([nH]2)-c2cc(ccc2F)Oc2c(F)cc3[nH]ccc3c2CCC1=O (single isomer, unassigned) [Compound 65B, 2-[3-(23,29-difluoro-6,10,10,12-tetramethyl-13-oxo-25-oxa-3,12,20,31-tetrazapentacyclo-[24.3.1.12,5.016,24.017,21]hentriaconta-1(30),2,4,16,18,21,23,26,28-nonaen-6-yl)phenyl]acetic acid]
DSLS (ΔTagg) [1]: C (a value greater than 10 °C and less than or equal to 25 °C is marked “C”)
TECC (test agent AUC divided by VX-809 AUC) [2]: A (a TECC value less than 3 is marked “A”)

[2H]C([2H])([2H])C1(c2cccc(CCC(=O)O)c2)CCCC(C)(C)CN(C)C(=O)CCc2c(c(F)cc3[nH]ccc23)Oc2ccc(F)c(c2)-c2ncc1[nH]2 (single isomer, unassigned) [Compound 66A]
DSLS (ΔTagg) [1]: A (an ΔTagg value less than or equal to 5 °C is marked “A”)
TECC (test agent AUC divided by VX-809 AUC) [2]: A (a TECC value less than 3 is marked “A”)

[2H]C([2H])([2H])C1(c2cccc(CCC(=O)O)c2)CCCC(C)(C)CN(C)C(=O)CCc2c(c(F)cc3[nH]ccc23)Oc2ccc(F)c(c2)-c2ncc1[nH]2 (single isomer, unassigned) [Compound 66B]
DSLS (ΔTagg) [1]: C (a value greater than 10 °C and less than or equal to 25 °C is marked “C”)
TECC (test agent AUC divided by VX-809 AUC) [2]: A (a TECC value less than 3 is marked “A”)

CC1(C)CNC(=O)CCc2c(c(F)cc3[nH]ccc23)Oc2ccc(F)c(c2)-c2ncc([nH]2)C(C)(c2cccc(CCC(=O)O)c2)CCOC1 (single isomer, unassigned) [Compound 67A, 3-[3-(24,30-difluoro-6,11,11-trimethyl-14-oxo-9,26-dioxa-3,13,21,32-tetrazapentacyclo[25.3.1.12,5.017,25.018,22]dotriaconta-1(31),2,4,17,19,22,24,27,29-nonaen-6-yl)phenyl]propanoic acid]
DSLS (ΔTagg) [1]: C (a value greater than 10 °C and less than or equal to 25 °C is marked “C”)
TECC (test agent AUC divided by VX-809 AUC) [2]: C (a value between 6 and 20 is marked “C”)

CC1(C)CNC(=O)CCc2c(c(F)cc3[nH]ccc23)Oc2ccc(F)c(c2)-c2ncc([nH]2)C(C)(c2cccc(CCC(=O)O)c2)CCOC1 (single isomer, unassigned) [Compound 67B, 3-[3-(24,30-difluoro-6,11,11-trimethyl-14-oxo-9,26-dioxa-3,13,21,32-tetrazapentacyclo[25.3.1.12,5.017,25.018,22]dotriaconta-1(31),2,4,17,19,22,24,27,29-nonaen-6-yl)phenyl]propanoic acid]
DSLS (ΔTagg) [1]: B (a value above 5 °C and less than or equal to 10 °C is marked “B”)
TECC (test agent AUC divided by VX-809 AUC) [2]: A (a TECC value less than 3 is marked “A”)

CC1(c2cccc(CCC(=O)O)c2)CCCC2(CC2)CNC(=O)CCc2c(c(F)c(F)c3[nH]ccc23)Oc2ccc(F)c(c2)-c2ncc1[nH]2 (single isomer, unassigned) [Compound 69A, 3-[3-(22,23,29-trifluoro-6-methyl-13-oxo-spiro[25-oxa-3,12,20,31-tetrazapentacyclo-[24.3.1.12,5.016,24.017,21]hentriaconta-1(30),2,4,16,18,21,23,26,28-nonaene-10,1′-cyclopropane]-6-yl)phenyl]propanoic acid]
DSLS (ΔTagg) [1]: A (an ΔTagg value less than or equal to 5 °C is marked “A”)
TECC (test agent AUC divided by VX-809 AUC) [2]: B (a value between 3 and 6 is marked “B”)

CC1(c2cccc(CCC(=O)O)c2)CCCC2(CC2)CNC(=O)CCc2c(c(F)c(F)c3[nH]ccc23)Oc2ccc(F)c(c2)-c2ncc1[nH]2 (single isomer, unassigned) [Compound 69B, 3-[3-(22,23,29-trifluoro-6-methyl-13-oxo-spiro[25-oxa-3,12,20,31-tetrazapentacyclo-[24.3.1.12,5.016,24.017,21]hentriaconta-1(30),2,4,16,18,21,23,26,28-nonaene-10,1′-cyclopropane]-6-yl)phenyl]propanoic acid]
DSLS (ΔTagg) [1]: A (an ΔTagg value less than or equal to 5 °C is marked “A”)
TECC (test agent AUC divided by VX-809 AUC) [2]: B (a value between 3 and 6 is marked “B”)

CN1CC(C)(C)CCCC(C)(c2cccc(CCC(=O)O)c2)c2cnc([nH]2)-c2cc(ccc2F)Oc2c(F)cc3[nH]cnc3c2CCC1=O (single isomer, unassigned) [Compound 72A, 3-[3-(23,29-difluoro-6,10,10,12-tetramethyl-13-oxo-25-oxa-3,12,18,20,31-pentazapentacyclo-[24.3.1.12,5.016,24.017,21]hentriaconta-1(30),2,4,16,18,21,23,26,28-nonaen-6-yl)phenyl]propanoic acid]
DSLS (ΔTagg) [1]: A (an ΔTagg value less than or equal to 5 °C is marked “A”)
TECC (test agent AUC divided by VX-809 AUC) [2]: A (a TECC value less than 3 is marked “A”)
